Laboratory results taken from patent US20100055169A1, “CATIONIC LIPIDS AND USES THEREOF” (ABBOTT LABORATORIES, priority 2008, published 2010).

Test: RiboGreen assay of siRNA encapsulation efficiency, in vitro formulations of Lipid-Based Particles
Assay type: physicochemical
Conditions: in vitro formulation b: Cationic lipid/PEG-cholesterol/DSPC/Chol 45/10/15/30 wt %, lipid:siRNA 25:1
Procedure: The mixing solution of cationic lipids, cholesterol, non-cationic lipids and PEG-lipids was prepared in ethanol (total concentration at 10 mg/mL). siSTABLE (purchased from ThermoFisher) (sense-5′ GGGGAAAGCUGGCAAGAUUUU-3′SEQ ID NO. 1, antisense-5′-AAUCUUGCCAGCUUUCCCCUU-3′ SEQ ID NO: 2) % stock solution was prepared in 10 mg/mL of solution by dissolving 10 mg siRNA in 1 mL of RNAse-free UltraPure Water. The calculated amount of siRNA solution was added to 1 mL of citrate buffer (pH 4.0, 20 mM), to provide an siRNA concentration of 0.2 mg/mL, and warmed to 60 C. The calculated amount of lipid solution was warmed to 60 C, transferred to a 0.5 mL syringe with 28½ gauge needle, and injected into the citrate buffer with stirring at 60 C. After 3 minutes, 3 mL of PBS solution at room temperature (pH 7.4) was added into the lipid mixture with stirring. The Lipid-Based Particle solution was cooled to room temperature.
The siRNA concentrations were measured using Quanti-iT RiboGreen RNA reagent (Molecular Probes, (R11490)). Vesicle sizes were characterized by dynamic light scattering with a DynaPro™ Plate Reader (Wyatt Technology) in 96-well half-area UV plate (Coring) after diluting the formulation sample (20 μL) in phosphate buffered saline (80 μL) at a pH of about 7-8. A 1% agarose gel-based assay was used for analyzing nuclease degradation and protection. Encapsulation efficiency (EE) was calculated using data obtained from a RiboGreen assay.
RNA concentration and encapsulation efficiency were determined using a Quant-iT® Ribogreen RNA reagent and kit available from Invitrogen. The siRNA was released from the Lipid-Based Particle using one of the following reagents: ethanol, Triton X-100, or phenol/chloroform. The siRNA concentration is quantified using fluorescent reading at 480 nm/520 nm.

Row | Compound | % Encapsulation Efficiency
1 | 1-[3,4-bis(hexadecyloxy)butyl]pyrrolidine [Example 38] | 99%
2 | CCCCC/C=C\C/C=C\CCCCCCCCOCC(CCOCCN(CC)CC)OCCCCCCCC/C=C\C/C=C\CCCCC (stereo not drawn) [Example 25, N-(2-{3,4-bis[(9Z,12Z)-octadeca-9,12-dienyloxy]butoxy}ethyl)-N,N-diethylamine] | 96.1%
3 | CCCCC/C=C\C/C=C\CCCCCCCCOCC(CCOCCC1CCCN1C)OCCCCCCCC/C=C\C/C=C\CCCCC (stereo not drawn) [Example 26, 2-(2-{3,4-bis[(9Z,12Z)-octadeca-9,12-dienyloxy]butoxy}ethyl)-1-methylpyrrolidine] | 99.9%
4 | CCCCC/C=C\C/C=C\CCCCCCCCOCC(CCOCCN1CC1)OCCCCCCCC/C=C\C/C=C\CCCCC (stereo not drawn) [Example 27, 1-(2-{3,4-bis[(9Z,12Z)-octadeca-9,12-dienyloxy]butoxy}ethyl)aziridine] | 97%
5 | CCCCC/C=C\C/C=C\CCCCCCCCOCC(CCOCCN(C)C)OCCCCCCCC/C=C\C/C=C\CCCCC (stereo not drawn) [Example 29, N-(2-{3,4-bis[(9Z,12Z)-octadeca-9,12-dienyloxy]butoxy}ethyl)-N,N-dimethylamine] | 96.4%
6 | CCCCC/C=C\C/C=C\CCCCCCCCC1(CCCCCCC/C=C\C/C=C\CCCCC)OCC(CCN(CC)CC)O1 (stereo not drawn) [Example 32, N,N-diethyl-N-(2-{2-[(8Z,11Z)-heptadeca-8,11-dienyl]-2-[(9Z,12Z)-octadeca-9,12-dienyl]-1,3-dioxolan-4-yl}ethyl)amine] | 98.6%
7 | CCCCCCCC/C=C\CCCCCCCC(=O)OCC(CCN1CCCC1)OC(=O)CCCCCCC/C=C\CCCCCCCC (stereo not drawn) [Example 33, 1-{[(9Z)-octadec-9-enoyloxy]methyl}-3-pyrrolidin-1-ylpropyl (9Z)-octadec-9-enoate] | 99%
8 | CCCCCCCC/C=C\CCCCCCCCOCC(CCN1CCCC1)OCCCCCCCC/C=C\CCCCCCCC (stereo not drawn) [Example 34, 1-{3,4-bis[(9Z)-octadec-9-enyloxy]butyl}pyrrolidine] | 99%
9 | CCCCC/C=C\C/C=C\C/C=C\C/C=C\CCCC(=O)OCC(CCN1CCCC1)OC(=O)CCC/C=C\C/C=C\C/C=C\C/C=C\CCCCC (stereo not drawn) [Example 35, 1-{[(5Z,8Z,11Z,14Z)-icosa-5,8,11,14-tetraenoyloxy]methyl}-3-pyrrolidin-1-ylpropyl(5Z,8Z,11Z,14Z)-icosa-5,8,11,14-tetraenoate] | 83.5%
10 | CCCCC/C=C\C/C=C\CCCCCCCCOC[C@H](CCOC(=O)NCCCN1CCCC1)OCCCCCCCC/C=C\C/C=C\CCCCC [Example 36, (3S)-3,4-bis[(9Z,12Z)-octadeca-9,12-dienyloxy]butyl 3-pyrrolidin-1-ylpropylcarbamate] | 99%
11 | CCCCCCCCCCCCCCCCCCOCC(CCN1CCCC1)OCCCCCCCCCCCCCCCCCC (stereo not drawn) [Example 37, 1-[3,4-bis(octadecyloxy)butyl]pyrrolidine] | 98.5%
12 | CCCCCC/C=C/CCCCCCCCOCC(CCN1CCCC1)OCCCCCCCC/C=C/CCCCCC (stereo not drawn) [Example 39, 1-{3,4-bis[(9E)-hexadec-9-enyloxy]butyl}pyrrolidine] | 99%
13 | CCCCCCCC/C=C/CCCCCCCCOCC(CCN1CCCC1)OCCCCCCCC/C=C/CCCCCCCC (stereo not drawn) [Example 40, 1-{3,4-bis[(9E)-octadec-9-enyloxy]butyl}pyrrolidine] | 97%
14 | CCCCC/C=C/C/C=C/CCCCCCCCOCC(CCN1CCCC1)OCCCCCCCC/C=C/C/C=C/CCCCC (stereo not drawn) [Example 41, 1-{3,4-bis[(9E,12E)-octadeca-9,12-dienyloxy]butyl}pyrrolidine] | 99%
15 | CC/C=C\C/C=C\C/C=C\CCCCCCCCOCC(CCN1CCCC1)OCCCCCCCC/C=C\C/C=C\C/C=C\CC (stereo not drawn) [Example 42, 1-{3,4-bis[(9Z,12Z,15Z)-octadeca-9,12,15-trienyloxy]butyl}pyrrolidine] | 98%
16 | CCCCC/C=C\C/C=C\CCCCCCCCOC[C@H](CCNC(=O)CCN(CC)CC)OCCCCCCCC/C=C\C/C=C\CCCCC [Example 43, N^1-{(3S)-3,4-bis[(9Z,12Z)-octadeca-9,12-dienyloxy]butyl}-N^3,N^3-diethyl-beta-alaninamide] | 96.5%
17 | CCCCC/C=C\C/C=C\CCCCCCCCOCC(CCNCCCn1ccnc1)OCCCCCCCC/C=C\C/C=C\CCCCC (stereo not drawn) [Example 44, N-{3,4-bis[(9Z,12Z)-octadeca-9,12-dienyloxy]butyl}-N-[3-(1H-imidazol-1-yl)propyl]amine] | 98%
18 | CCCCC/C=C\C/C=C\CCCCCCCCOCC(CCN(C)CCCN(C)C)OCCCCCCCC/C=C\C/C=C\CCCCC (stereo not drawn) [Example 45, N-{3,4-bis[(9Z,12Z)-octadeca-9,12-dienyloxy]butyl}-N,N′,N′-trimethylpropane-1,3-diamine] | 99%
19 | CCCCC/C=C\C/C=C\CCCCCCCCOCC(CCN1CCC(n2ccnc2)C1)OCCCCCCCC/C=C\C/C=C\CCCCC (stereo not drawn) [Example 46, 1-(1-{3,4-bis[(9Z,12Z)-octadeca-9,12-dienyloxy]butyl}pyrrolidin-3-yl)-1H-imidazole] | 98%
20 | CCCCC/C=C\C/C=C\CCCCCCCCOCC(CCNCCCN1CCCC1)OCCCCCCCC/C=C\C/C=C\CCCCC (stereo not drawn) [Example 47, N-{3,4-bis[(9Z,12Z)-octadeca-9,12-dienyloxy]butyl}-N-(3-pyrrolidin-1-ylpropyl)amine] | 99%
21 | CCCCC/C=C\C/C=C\CCCCCCCCOCC(CCNCCCN(C)C)OCCCCCCCC/C=C\C/C=C\CCCCC (stereo not drawn) [Example 48, N-{3,4-bis[(9Z,12Z)-octadeca-9,12-dienyloxy]butyl}-N′,N′-dimethylpropane-1,3-diamine] | 99%
22 | CCCCC/C=C\C/C=C\CCCCCCCCOCC(CCN1CCC1)OCCCCCCCC/C=C\C/C=C\CCCCC (stereo not drawn) [Example 49, 1-{3,4-bis[(9Z,12Z)-octadeca-9,12-dienyloxy]butyl}azetidine] | 99%
23 | CCCCC/C=C\C/C=C\CCCCCCCCOCC(CCN1CCCC1C)OCCCCCCCC/C=C\C/C=C\CCCCC (stereo not drawn) [Example 50, 1-{3,4-bis[(9Z,12Z)-octadeca-9,12-dienyloxy]butyl}-2-methylpyrrolidine] | 99%
24 | CCCCC/C=C\C/C=C\CCCCCCCCOCC(CCN1C(C)CCC1C)OCCCCCCCC/C=C\C/C=C\CCCCC (stereo not drawn) [Example 51, 1-{3,4-bis[(9Z,12Z)-octadeca-9,12-dienyloxy]butyl}-2,5-dimethylpyrrolidine] | 99%
